pIC50: −log10 of the molar value.

One may read the pIC50 as −log10 of the IC50, conventionally taken in molar units.

The target of the assay is T1, hBPGM (Homo sapiens, UniProt P07738).
T1 sequence (P07738 1-259): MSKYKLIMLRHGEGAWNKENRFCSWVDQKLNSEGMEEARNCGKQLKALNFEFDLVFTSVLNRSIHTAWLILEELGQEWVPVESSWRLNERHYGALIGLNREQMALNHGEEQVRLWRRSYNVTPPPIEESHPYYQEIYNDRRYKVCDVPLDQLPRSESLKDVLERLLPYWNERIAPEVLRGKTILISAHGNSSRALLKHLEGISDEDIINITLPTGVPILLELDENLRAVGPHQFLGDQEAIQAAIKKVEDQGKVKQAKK
As to the kind of experiment: BPGM synthase assay. The assay is classed as biochemical. The conditions noted are these: Table 6; read-out: huBPGM: synthase Enzyme IC50. The method, then:
The following materials were used in this assay: deionized water; Bisphosphoglycerate mutase (BPGM; Standard Buffer: 50 mM Tris, 0.01% Tween 20, pH 7.4); BPGM Reaction Buffer (50 mM Tris, 0.01% Tween 20, 3.23 mM KH2PO4, pH 7.4); dithiothreitol (DTT; Stock solution: 100 mM in Standard Buffer); 384-Well Black Assay Plate (Corning, P/N 3575); DMSO; BPGM Stock Solution (500 nM in BPGM Standard Buffer); Glyceraldehyde 3-phosphate dehydrogenase (GAPDH; Stock Solution: 40 U/mL in 20 mM Tris-HCL Buffer with 20% Glycerol, 1 mM EDTA, 1 mM DTT); Glyceraldehyde 3-phosphate (GAP; Stock Solution: 20 mM in BPGM Standard Buffer); 3-PG Stock Solution (500 μM in BPGM Standard Buffer); Nicotinamide adenine dinucleotide (NAD; Stock Solution: 50 mM in BPGM Standard Buffer); Koningic Acid (1 mM Stock in DMSO); Resazurin Stock Solution (10 mM in DMSO); Diaphorase Stock Solution (40 U/mL in BPGM Standard Buffer); DTT Reaction Buffer (1 mM DTT in BPGM Reaction Buffer); Enzyme Solution (5 nM BPGM, 0.4 U/mL GAPDH in DTT Reaction Buffer); GAPDH Solution (0.4 U/mL GAPDH in DTT Reaction Buffer); Substrate Solution (2 mM NAD, 20 μM 3PG, 800 μM GAP in DTT Reaction Buffer); and Resazurin Solution (5 U/mL Diaphorase, 500 μM Resazurin in BPGM Standard Buffer).
To the assay plate was added Enzyme Solution (20 uL) to columns 2-22 and 24 of the assay plate. To columns 1 and 23 was added GAPDH Solution (20 uL). A separate compound plate was prepared at the desired concentrations and all wells were normalized with 5% DMSO. The compound plate was incubated for 30 minutes at RT. Next, the substrate solution (20 μL) was dispensed to all reaction wells and the plate was incubated for 60 minutes at RT. Koningic acid (1 μL) was added and the plate was incubated for 10 minutes at RT. During this time period, the NADH fluorescence was read at ex: 360/em: 460. Next, Resazurin Solution (10 μL) was added to all reaction wells and the plate was incubated for 30 minutes at RT. The resorufin fluorescence was then read at ex:544/em:590.
`Cc1nc(CO)sc1-c1csc(-c2cc(F)c(O)c(F)c2F)n1` [Example 116]: the pIC50 is 5.19. Under `COC(C)(C)COCc1nc(C)c(-c2cccc(-c3cc(F)c4nn[nH]c4c3F)n2)s1` [Example 227] stands 7.68; under `COC(=O)NCc1nc(C)c(-c2csc(-c3cc(O)c(NS(C)(=O)=O)cc3F)n2)s1` [Example 183], under 4.60. Under `COC(=O)NCc1nc(C)c(-c2csc(-c3ccc(C4SC(=O)NC4=O)cc3)n2)s1` (centres unmarked) [Example 204] stands under 4.60; under `Cc1nc(C)c(-c2cccc(-c3cc(F)c4nn[nH]c4c3F)n2)s1` [Example 90], 6.47. Next, `Cc1nc(CNC(=O)N2CCC(O)C2)sc1-c1csc(-c2cc(F)c3[nH]nnc3c2F)n1` (centres unmarked) [Example 80]: 5.55; `Cc1nc(COC(=O)N2CCC(O)C2)sc1-c1csc(-c2cc(F)c(O)c(F)c2F)n1` (centres unmarked) [Example 79]: 5.62; `COCc1nc(C)c(-c2cccc(-c3cc(F)c4nn[nH]c4c3F)n2)s1` [Example 68]: 6.70. In the case of `Cc1nc(CNC(=O)C2CN(C)C2)sc1-c1csc(-c2cc(F)c(O)c(F)c2F)n1` [Example 83], the pIC50 was under 4.60.

`Cc1nc(COC(=O)N2CCC(O)CC2)sc1-c1cccc(-c2cc(F)c3nn[nH]c3c2F)n1` [Example 47]: the pIC50 is 7.60. Next, `Cc1nc(CNC(=O)N2CCC(O)C2)sc1-c1cccc(-c2cc(F)c3nn[nH]c3c2F)n1` (centres unmarked) [Example 61]: 6.66. Turning to `Cc1nc(CNC(=O)N(C)C)sc1-c1csc(-c2cc(F)c3[nH]nnc3c2)n1` [Example 107], the pIC50 was 5.49.

`Cc1nc(COc2ccccn2)sc1-c1csc(-c2cc(F)c(F)c(O)c2F)n1` [Example 55]: the pIC50 is 6.66. As for `Cc1nc(COc2ncccn2)sc1-c1csc(-c2cc(F)c(C#N)c(O)c2F)n1` [Example 33], the pIC50 was 6.60. Under `CC(=O)NCc1nc(C)c(-c2cccc(-c3cc(F)c4nn[nH]c4c3F)n2)s1` [Example 54] stands 7.04. Under `Cc1nc(COC(C)C(=O)N(C)C)sc1-c1csc(-c2cc(F)c3[nH]nnc3c2F)n1` (centres unmarked) [Example 50] stands 7.13; under `Cc1nc(CNc2cccnn2)sc1-c1csc(-c2cc(F)c(O)c(F)c2F)n1` [Example 89], 6.55. Next, `CC(=O)N(C)Cc1nc(C)c(-c2cccc(-c3cc(F)c4nn[nH]c4c3F)n2)s1` [Example 65]: 6.55; `Cc1nc(CNC(=O)N(C)C)sc1-c1csc(-c2cc(F)c(O)c(F)c2F)n1` [Example 112]: 6.19; `Cc1nc(NC(=O)OC(C)(C)C)sc1-c1cccc(-c2cc(F)c3[nH]nnc3c2F)n1` [Example 30]: 6.70. As to `Cc1nc(COC(=O)N2CCC(N(C)C)C2)sc1-c1cccc(-c2cc(F)c3nn[nH]c3c2F)n1` (centres unmarked) [Example 32], the pIC50 was 7.12.

`Cc1nc(COC(=O)N2CCC(O)C2)sc1-c1cccc(-c2cc(F)c(O)c(F)c2F)n1` (centres unmarked) [Example 35]: the pIC50 is 6.22.

`COC1CCN(C(=O)OCc2nc(C)c(-c3cccc(-c4cc(F)c5nn[nH]c5c4F)n3)s2)C1` (centres unmarked) [Example 39]: the pIC50 is 7.39.

As for `Cc1nc(CNCC(=O)N(C)C)sc1-c1cccc(-c2cc(F)c3nn[nH]c3c2F)n1` [Example 53], the pIC50 was 6.05. As for `Cc1nc(COc2ncccn2)sc1-c1nc(-c2cc(F)c(O)c(C#N)c2)cs1` [Example 72], the pIC50 is 6.29. Under `Cc1nc(COc2ncccn2)sc1-c1cccc(-c2ccc([N+](=O)[O-])c(F)c2)n1` [Example 134] stands under 4.60; under `Cc1nc(CNc2ncc(C(F)(F)F)cn2)sc1-c1csc(-c2cc(F)c(O)c(F)c2F)n1` [Example 84], under 4.60; under `COC(=O)NCc1nc(C)c(-c2csc(-c3cnc(O)nc3)n2)s1` [Example 193], 4.64. Next, `COC(=O)NCc1nc(C)c(-c2csc(-c3cnc(O)c(F)c3)n2)s1` [Example 200]: 4.92.

The values above are taken from patent US20230348454A1, “COMPOUNDS AS MODULATORS OF BIS-PHOSPHOGLYCERATE MUTASE FOR THE TREATMENT OF SICKLE CELL DISEASE” (Genzyme Corporation, priority 2020, published 2023).
